Columns and labels:
[1] = tested on: spontaneous hypertensive rats (SHR); assay: Hypotensive effect on spontaneous hypertensive rats (intravenously) (Referential Example 1)-3); type: in vivo; details: Rattus norvegicus, iv, anesthetized SHR, dose descending mean blood pressure by 20%; read-out: ED₂₀ (mg/kg, i.v.)
Protocol: (§1) Rats were anesthetized with urethane-α-chloralose (1 g/kg - 25 mg/kg; intraperitoneally). Mean blood pressure was measured by a pressure transducer through a cannula inserted into the carotid artery. The compound was cumulatively administered every 30 minutes through the cannula inserted into the jagular vein. The change in blood pressure was expressed as percent of the blood pressure before the administration of the compound. And the ED₂₀ value, which was the dose required for descending blood pressure to an extent of 20%, was calculated from the dose-response curve.

potassium channel = assay: Potassium channel activating effect (86Rb efflux from rat thoracic aorta); details: compound 10⁻⁴ M for 8 minutes, percent of the efflux before application
Protocol: Male Wistar rats (weighing 250-350 g) were dehematized to death, and thoracic aortae were rapidly isolated. The aorta was opened along the longitudinal axis to prepare a flat sheet. The preparation was loaded with ⁸⁶Rb in the Krebs-Ringer solution which contained ⁸⁶Rb in the concentration of 10 µCi/ml and was gassed with 95% O₂ - 5% CO₂ at 37°C for 2 hours. The preparation was then transferred to a Krebs-Ringer solution not containing ⁸⁶Rb, and washed to remove excess radioactivity for 18 minutes by refreshing the solution every 2 minutes. Finally the preparation was placed into a Krebs-Ringer solution containing each compound (10⁻⁴ M) for 8 minutes.
The amount of ⁸⁶Rb efflux from the preparation in each period was determined with a γ-counter.
The increment in efflux rate during the application of the compound was expressed as percent of the efflux before the application of the compound.

isolated rat aortae [2] = assay: Vasorelaxing effect on the isolated rat aortae (Referential Example 1)-1); details: inhibition of contraction induced by 40 mM KCl
Protocol: (§2) The compounds of the present invention were tested for their physiological activities by measuring the tension of isolated rat aortae isometrically.
Thoracic aortae obtained from male Wistar rats (weighing 250-350 g) were cut into ring segments about 3 mm long. The ring preparation was placed in an organ bath filled with 10 ml of Krebs-Ringer solution that was maintained at 37°C and gassed with 95% O₂ - 5% CO₂.
The preparation in the organ bath was allowed to equilibrate under resting tension of 1 g. After equilibration period, the solution in the organ bath was replaced with an isotonic solution containing 40 mM KCl to contract the preparation.
(§3) After the contraction induced by KCl had reached plateau, the concentration-response relationship for the test compound was determined by means of cumulative addition.
(§4) The relaxation response of the test compounds was expressed as the percent inhibition of the contraction induced by KCl, and the IC₅₀ value, which is a concentration required for inhibiting the contraction induced by KCl to an extent of 50%, was calculated by the Probit method from the concentration-response curve.

isolated rat aortae [3] = assay: Vasorelaxing effect on the isolated rat aortae (Referential Example 2)-1); details: inhibition of contraction induced by 40 mM KCl, read-out: IC₅₀ Value
Protocol: as §2
Thoracic aortae obtained from male Wistar rats (weighing 250-350 g) were cut into ring segments about 3 mm long. The ring preparation was placed in an organ bath filled with 10 ml of Krebs-Ringer solution which was maintained at 37°C and gassed with 95% O₂ - 5% CO₂.
The preparation in the organ bath was allowed to equilibrate under resting tension 1 g. After equilibration period, the solution in the organ bath was replaced with an isotonic solution containing 40 mM KCl to contract the preparation.
as §3, §4

[4] = tested on: spontaneous hypertensive rats (SHR); assay: Hypotensive effect on spontaneous hypertensive rats (intravenously) (Referential Example 2)-2); type: in vivo; details: Rattus norvegicus, iv, anesthetized SHR, dose decreasing mean blood pressure by 20%; read-out: ED₂₀ (mg/kg, i.v.)
Protocol: as §1, with “decreasing” for “descending”

isolated heart of rats = assay: Myocardiac injury induced by re-perfusion after ischemia (isolated heart of rats); details: 1×10⁻⁶ mole/min, after 30 minutes re-perfusion, mean ± SD
Protocol: The cardiac muscle protecting effect of the compound of the present invention was tested by using the isolated heart of rats [test compound: N-cyano-N′-(2-nitroxyethyl)-3-pyridinecarboximidamide (compound (13))]. The Langendorff's method was used in the same manner as in the aforementioned Referential Example 1)-6. The isolated heart was perfused with a perfusate for 30 minutes and then with a perfusate containing the test compound for 10 minutes, and perfusion was stopped so that the heart was in the so-called "ischemic state". Pacing was performed during the ischemia. […] Parameters of cardiac function after the onset of re-perfusion was monitored for 30 minutes, and the heart was quickly freezed. The amount of ATP in the heart muscle was extracted with perchloric acid and determined by HPLC. Nicorandil was used as a control.
The recovery rate of the cardiac function (heart rate × left ventricular pressure) after onset of reperfusion was calculated based on the cardiac function prior to the perfusion of the compound (13) and nicorandil as 100%. The amount of ATP in the heart muscle was also determined.

isolated rat heart = assay: Effect on isolated rat heart (Langendorff's method); details: 1 × 10⁻⁸ mol/min, mean ± S.D.
Protocol: The effect of the compound of the present invention on heart of rats was examined by using the Langendorff's method [test compound: N-cyano-N′-(2-nitroxyethyl)-3-pyridinecarboximidamide (compound (13))]. Hearts were excised from male rats (weighing 250-350 g) and perfused at 80 cmH₂O in a Langendorff fashion. Krebs-Hensaleit bicarbonate solution (pH 7.4, 37°C) containing an 11 mM glucose which was oxygenated with 95% O₂- 5% CO₂ gas mixture was used as a perfusate. The left ventricular pressure was recorded by inserting a latex baloon into the left ventricle, and heart rate was determined from the pulse of it. Coronary perfusate flow was also measured with an electromagnetic flowmeter. The experiments were carried out by perfusing a perfusate containing the compound (13) for 10 minutes after an initial equilibration period for 30 minutes. As the control compound, nicorandil which has an effect opening potassium channel and is similar to the test compound in structure was used. The changes in the coronary perfusate flow and the cardiac function (heart rate × left ventricular pressure) caused by these compounds were expressed as percent changes from the preperfusion values of the compound (13) or nicorandil.

beagles = assay: Hemodynamic profile in beagles (intravenously); type: in vivo; details: peak percent change from pretreatment
Protocol: Hemodynamic profile of the compound of the present invention was investigated in beagles anesthetized with pentobarbital (30 mg/kg, intravenously) [test compound: N-cyano-N′-(2-nitroxyethyl)-3-pyridinecarboximidamide (compound (13))]. The thorax was opened under artificial respiration. After administering heparin in an amount of 500 units/kg, a Moravitz's cannula was introduced into the coronary sinus via the right atrium. The coronary sinus outflow was returned to the right external jagular vein. The coronary sinus outflow was measured by an electromagnetic flowmeter (MFU-2100, manufactured by Nihon Kohden) connected to the Moravitz's cannula. A cannula was inserted into the aortic arch through the subclavian artery to measure aortic blood pressure. The aortic blood pressure was measured with a pressure transducer (Nihon Kohden, TP-200T). Heart rate was monitored with a heart rate counter with R waves of electrocardiogram. All parameters were recorded on a thermosensitive recorder (WT-685G, manufactured by Nihon Kohden).
The compound was administered through the cannula inserted into the right femoral vein. Nicorandil was used as a control. As for respective measurement items, peak changes were expressed as percent change from the pretreatment values of the compound (13) or nicorandil.

SMILES: N#CNC(=NCc1ccccc1)c1cccnc1 [(17), N-cyano-N'-benzyl-3-pyridinecarboximidamide]
- ED20 [1]: 0.25 mg/kg
- Increment of Efflux (%) (potassium channel): 135.41%
- IC50 (isolated rat aortae [2]): 66 µM

SMILES: N#CNC(=NCCc1ccccc1)c1cccnc1 [(27), N-cyano-N'-(2-phenylethyl)-3-pyridinecarboximidamide]
- ED20 [1]: 0.074 mg/kg
- Increment of Efflux (%) (potassium channel): 206.61%
- IC50 (isolated rat aortae [2]): 40 µM

SMILES: N#CNC(=NCCc1ccccc1Cl)c1cccnc1 [(29), N-cyano-N'-[2-(2-chlorophenyl)ethyl]-3-pyridinecarboximidamide]
- ED20 [1]: 0.013 mg/kg
- IC50 (isolated rat aortae [2]): 38 µM

SMILES: N#CNC(=NCCO[N+](=O)[O-])c1ccncc1 [(41), N-cyano-N'-(2-nitroxyethyl)-4-pyridinecarboximidamide]
- ED20 [1]: 0.13 mg/kg
- Increment of Efflux (%) (potassium channel): 126.88%
- IC50 (isolated rat aortae [2]): 12 µM

SMILES: CC(N=C(NC#N)c1ccncc1)C(O[N+](=O)[O-])c1ccc([N+](=O)[O-])cc1 (stereo not shown) [(51), N-cyano-N'-[1-methyl-2-(4-nitrophenyl)-2-nitroxyethyl]-4-pyridinecarboximidamide]
- IC50 (isolated rat aortae [2]): 13 µM

SMILES: N#CN=C(NCCO[N+](=O)[O-])c1ccc(Cl)nc1 [(52), N-cyano-N'-(2-nitroxyethyl)-3-(6-chloropyridine)carboximidamide]
- IC50 (isolated rat aortae [2]): 11 µM

SMILES: N#CN=C(NCCc1ccccc1)c1ccc(Cl)nc1 [(53), N-cyano-N'-(2-phenylethyl)-3-(6-chloropyridine)carboximidamide]
- IC50 (isolated rat aortae [2]): 77 µM

SMILES: N#CNC(=NCCc1ccccc1)c1cnc2ccccc2c1 [(60), N-cyano-N′-(2-phenylethyl)-3-quinolinecarboximidamide]
- IC50 (isolated rat aortae [3]): 6.1 µM

SMILES: N#CNC(=NCCO[N+](=O)[O-])c1cnccn1 [(61), N-cyano-N′-(2-nitroxyethyl)pyrazinecarboximidamide]
- IC50 (isolated rat aortae [3]): 53 µM

SMILES: N#CNC(=NCCO[N+](=O)[O-])c1ccco1 [(62), N-cyano-N′-(2-nitroxyethyl)-2-furancarboximidamide]
- ED20 [4]: 0.025 mg/kg
- IC50 (isolated rat aortae [3]): 26 µM

SMILES: N#CNC(=NCCc1ccccc1)c1ccco1 [(63), N-cyano-N′-(2-phenylethyl)-2-furancarboximidamide]
- IC50 (isolated rat aortae [3]): 18 µM

SMILES: N#CNC(=NCCO[N+](=O)[O-])c1ccoc1 [(64), N-cyano-N′-(2-nitroxyethyl)-3-furancarboximidamide]
- IC50 (isolated rat aortae [3]): 8 µM

SMILES: N#CNC(=NCCc1ccccc1)c1ccoc1 [(65), N-cyano-N′-(2-phenylethyl)-3-furancarboximidamide]
- IC50 (isolated rat aortae [3]): 94 µM

SMILES: N#CNC(=NCCO[N+](=O)[O-])c1cccs1 [(66), N-cyano-N′-(2-nitroxyethyl)-2-thiophenecarboximidamide]
- ED20 [4]: 0.115 mg/kg
- IC50 (isolated rat aortae [3]): 9.6 µM

SMILES: N#CNC(=NCCc1ccccc1)c1cccs1 [(67), N-cyano-N′-(2-phenylethyl)-2-thiophenecarboximidamide]
- IC50 (isolated rat aortae [3]): 19 µM

SMILES: N#CNC(=NCCc1ccccc1)c1ccsc1 [(68), N-cyano-N′-(2-phenylethyl)-3-thiophenecarboximidamide]
- IC50 (isolated rat aortae [3]): 92 µM

SMILES: N#CNC(=NCCc1ccccc1)c1ccc(C#N)cc1 [(69), N-cyano-N′-(2-phenylethyl)-4-cyanobenzenecarboximidamide]
- IC50 (isolated rat aortae [3]): 40 µM

SMILES: CSC(=NC#N)NCCO[N+](=O)[O-] [(70), 3-Cyano-2-methyl-1-(2-nitroxyethyl)-isothiourea]
- IC50 (isolated rat aortae [3]): 4.3 µM

SMILES: N#CNC(=NCCO[N+](=O)[O-])c1ccccn1 [Compound (1), N-cyano-N'-(2-nitroxyethyl)-2-pyridinecarboximidamide]
- ED20 [1]: 0.037 mg/kg
- IC50 (isolated rat aortae [2]): 4.6 µM

SMILES: CN(C)c1ccc(CN=C(NC#N)c2cccnc2)cc1 [Compound (20), N-cyano-N'-(4-dimethylaminobenzyl)-3-pyridinecarboximidamide]
- IC50 (isolated rat aortae [2]): 78 µM

SMILES: N#CNC(=NCC(OCc1ccccc1)c1ccccc1)c1cccnc1 (stereo not shown) [Compound (38), N-cyano-N'-(2-benzyloxy-2-phenylethyl)-3-pyridinecarboximidamide]
- IC50 (isolated rat aortae [2]): 68 µM

SMILES: N#CNC(=NCCO[N+](=O)[O-])c1cnc2ccccc2c1 [Compound (59), N-cyano-N′-(2-nitroxyethyl)-3-quinolinecarboximidamide]
- IC50 (isolated rat aortae [3]): 24 µM

SMILES: N#CN=C(N)c1cccnc1 [N-cyano-3-pyridine-carboxyimidamide, reference compound]
- IC50 (isolated rat aortae [2]): 40000 µM

SMILES: N#CN=C(N)c1ccncc1 [N-cyano-4-pyridine-carboxyimidamide, reference compound]
- IC50 (isolated rat aortae [2]): 180 µM

SMILES: O=C(NCCO[N+](=O)[O-])c1cccnc1 [Nicorandil, nicorandil, reference compound]
- Amount of ATP in the heart muscle (µmole/g of dry weight) (isolated heart of rats): 5.93±0.49 (4) µmole/g of dry weight
- Coronary Perfusate Flow (% change) (isolated rat heart; perfusion 10 minutes): 3.3±5.6 % change
- Cardiac Function (isolated rat heart; heart rate × left ventricular pressure, percent change from preperfusion): 3.7±6.7%
- Coronary Blood Flow (beagles; i.v. 100.0 µg/kg): 20.3±5.1%
- Heart Rate (beagles; i.v. 100.0 µg/kg): 0.2±2.1%
- Mean Aortic Blood Pressure (beagles; i.v. 100.0 µg/kg): -21.3±1.9%
- Coronary Blood Flow (beagles; i.v. 300.0 µg/kg): 84.9±10.8%
- Heart Rate (beagles; i.v. 300.0 µg/kg): -20.7±1.9%
- Mean Aortic Blood Pressure (beagles; i.v. 300.0 µg/kg): -43.1±5.4%
